Biological target: T1, MLLT1 (Homo sapiens, UniProt Q03111)
T1 construct: endogenous in cells; host or cells: MV4-11 (ATCC CRL-9591)
T1 sequence (Q03111 1-559): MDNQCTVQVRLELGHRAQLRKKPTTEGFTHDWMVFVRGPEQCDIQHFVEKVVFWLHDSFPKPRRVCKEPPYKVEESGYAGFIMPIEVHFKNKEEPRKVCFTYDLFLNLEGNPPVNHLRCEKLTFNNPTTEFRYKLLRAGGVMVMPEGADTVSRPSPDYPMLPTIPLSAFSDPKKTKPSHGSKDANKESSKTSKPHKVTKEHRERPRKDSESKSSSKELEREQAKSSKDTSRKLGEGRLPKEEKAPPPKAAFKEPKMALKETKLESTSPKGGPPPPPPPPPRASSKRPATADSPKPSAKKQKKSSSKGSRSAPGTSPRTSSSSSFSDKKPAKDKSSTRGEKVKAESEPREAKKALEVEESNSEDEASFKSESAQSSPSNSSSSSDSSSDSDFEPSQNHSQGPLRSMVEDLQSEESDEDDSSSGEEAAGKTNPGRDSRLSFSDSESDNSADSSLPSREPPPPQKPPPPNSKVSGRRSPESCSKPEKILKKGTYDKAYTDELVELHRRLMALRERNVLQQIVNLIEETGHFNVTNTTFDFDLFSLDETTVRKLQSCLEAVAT
Test: MLLT1 degradation assay (JESS automated chemiluminescent detection) in MV4-11 cells
Format: cell-based
Conditions: 24h, with respect to DMSO control
Procedure, shortened: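 MV4-11 cells were treated with 1000, 100 or 10 nM compound (0.1% DMSO) for 24 h at 37 °C. Lysates (4 µg protein) were probed for MLLT1 and GAPDH by JESS capillary chemiluminescence. Degradation was calculated from band peak areas versus DMSO control and binned into categories A–D.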

## Cc1nn(CCCCCCCC#Cc2cccc3c2CN(C2CCC(=O)NC2=O)C3=O)c2cc(C(=O)Nc3cc4[nH]c([C@H]5CCCN5C)cc4cn3)c(F)cc12 (stereo partly drawn) [Example 58, 1-(9-(2-(2,6-dioxopiperidin-3-yl)-1-oxoisoindolin-4-yl)non-8-yn-1-yl)-5-fluoro-3-methyl-N-(2-((R)-1-methylpyrrolidin-2-yl)-1H-pyrrolo[3,2-c]pyridin-6-yl)-1H-indazole-6-carboxamide]
  inhibition at 0.01 µM: ≥ 75%
  inhibition at 0.1 µM: ≥ 75%
  inhibition at 1 µM: ≥ 75%

## CN1CCC[C@@H]1c1cc2cnc(NC(=O)c3ccc4c(C5CC5)nn(CCCCCCCC#Cc5cccc6c5CN(C5CCC(=O)NC5=O)C6=O)c4c3)cc2[nH]1 (stereo partly drawn) [Example 59, 3-cyclopropyl-1-(9-(2-(2,6-dioxopiperidin-3-yl)-1-oxoisoindolin-4-yl)non-8-yn-1-yl)-N-(2-((R)-1-methylpyrrolidin-2-yl)-1H-pyrrolo [3,2-c]pyridin-6-yl)-1H-indazole-6-carboxamide]
  inhibition at 0.01 µM: ≥ 75%
  inhibition at 0.1 µM: ≥ 75%
  inhibition at 1 µM: ≥ 75%

## Cc1nn(CCCCCCCC#Cc2cc3c(cc2F)C(=O)N(C2CCC(=O)NC2=O)C3)c2cc(C(=O)Nc3cc4[nH]c([C@H]5CCCN5C)cc4cn3)ccc12 (stereo partly drawn) [Example 60, 1-(9-(2-(2,6-dioxopiperidin-3-yl)-6-fluoro-1-oxoisoindolin-5-yl)non-8-yn-1-yl)-3-methyl-N-(2-((R)-1-methylpyrrolidin-2-yl)-1H-pyrrolo[3,2-c]pyridin-6-yl)-1H-indazole-6-carboxamide]
  inhibition at 0.01 µM: 25 to 50%
  inhibition at 0.1 µM: 50 to 75%
  inhibition at 1 µM: ≥ 75%

## Cc1nn(CCCCCCCC#Cc2cccc(C3CCC(=O)NC3=O)c2F)c2cc(C(=O)Nc3cc4[nH]c([C@H]5CCCN5C)cc4cn3)ccc12 (stereo partly drawn) [Example 61, 1-(9-(3-(2,6-dioxopiperidin-3-yl)-2-fluorophenyl)non-8-yn-1-yl)-3-methyl-N-(2-((R)-1-methylpyrrolidin-2-yl)-1H-pyrrolo [3,2-c]pyridin-6-yl)-1H-indazole-6-carboxamide]
  inhibition at 0.01 µM: 25 to 50%
  inhibition at 0.1 µM: ≥ 75%
  inhibition at 1 µM: ≥ 75%

## Cc1nn(CCCCCCCC#Cc2cccc(C3CCC(=O)NC3=O)n2)c2cc(C(=O)Nc3cc4[nH]c([C@H]5CCCN5C)cc4cn3)ccc12 (stereo partly drawn) [Example 62, 1-(9-(6-(2,6-dioxopiperidin-3-yl)pyridin-2-yl)non-8-yn-1-yl)-3-methyl-N-(2-((R)-1-methylpyrrolidin-2-yl)-1H-pyrrolo [3,2-c]pyridin-6-yl)-1H indazole-6-carboxamide]
  inhibition at 0.01 µM: 50 to 75%
  inhibition at 0.1 µM: 50 to 75%
  inhibition at 1 µM: ≥ 75%

## Cc1nn(CCCCCCCC#Cc2cccc(N3CCC(=O)NC3=O)c2F)c2cc(C(=O)Nc3cc4[nH]c([C@H]5CCCN5C)cc4cn3)ccc12 [Example 63, (R)-1-(9-(3-(2,4-dioxotetrahydropyrimidin-1(2H)-yl)-2-fluorophenyl)non-8-yn-1-yl)-3-methyl-N-(2-(1-methylpyrrolidin-2-yl)-1H-pyrrolo [3,2-c]pyridin-6-yl)-1H-indazole-6-carboxamide]
  inhibition at 0.01 µM: < 25%
  inhibition at 0.1 µM: 50 to 75%
  inhibition at 1 µM: ≥ 75%

## Cc1nn(CCCCCCCC#Cc2cc3c(cc2F)c(N2CCC(=O)NC2=O)nn3C)c2cc(C(=O)Nc3cc4[nH]c([C@H]5CCCN5C)cc4cn3)ccc12 [Example 65, (R)-1-(9-(3-(2,4-dioxotetrahydropyrimidin-1(2H)-yl)-5-fluoro-1-methyl-1H-indazol-6-yl)non-8-yn-1-yl)-3-methyl-N-(2-(1-methylpyrrolidin-2-yl)-1H-pyrrolo[3,2-c]pyridin-6-yl)-1H-indazole-6-carboxamide]
  inhibition at 0.01 µM: 25 to 50%
  inhibition at 0.1 µM: 50 to 75%
  inhibition at 1 µM: ≥ 75%

## Cc1nn(CCCCCCCC#Cc2cccc3c2CN(C2CCC(=O)NC2=O)C3=O)c2cc(C(=O)Nc3cc4[nH]c([C@H]5CCCN5C)c(C#N)c4cn3)ccc12 (stereo partly drawn) [Example 66, N-(3-cyano-2-((R)-1-methylpyrrolidin-2-yl)-1H-pyrrolo[3,2-c]pyridin-6-yl)-1-(9-(2-(2,6-dioxopiperidin-3-yl)-1-oxoisoindolin-4-yl)non-8-yn-1-yl)-3-methyl-1H-indazole-6-carboxamide]
  inhibition at 0.01 µM: ≥ 75%
  inhibition at 0.1 µM: ≥ 75%
  inhibition at 1 µM: ≥ 75%

## Cc1nn(CCCCCCCC#Cc2ccc(F)c3c2CN(C2CCC(=O)NC2=O)C3=O)c2cc(C(=O)Nc3cc4[nH]c([C@H]5CCCN5C)c(Cl)c4cn3)ccc12 (stereo partly drawn) [Example 67, N-(3-chloro-2-((R)-1-methylpyrrolidin-2-yl)-1H-pyrrolo[3,2-c]pyridin-6-yl)-1-(9-(2-(2,6-dioxopiperidin-3-yl)-7-fluoro-1-oxoisoindolin-4-yl)non-8-yn-1-yl)-3-methyl-1H indazole-6-carboxamide]
  inhibition at 0.01 µM: ≥ 75%
  inhibition at 0.1 µM: ≥ 75%
  inhibition at 1 µM: ≥ 75%

## Cc1nn(C2CCN(CC#Cc3cccc4c3CN(C3CCC(=O)NC3=O)C4=O)CC2)c2cc(C(=O)Nc3cc4[nH]c([C@H]5CCCN5C)cc4cn3)ccc12 (stereo partly drawn) [Example 68, 1-(1-(3-(2-(2,6-dioxopiperidin-3-yl)-1-oxoisoindolin-4-yl)prop-2-yn-1-yl)piperidin-4-yl)-3-methyl-N-(2-((R)-1-methylpyrrolidin-2-yl)-1H-pyrrolo[3,2-c]pyridin-6-yl)-1H-indazole-6-carboxamide]
  inhibition at 0.01 µM: ≥ 75%
  inhibition at 0.1 µM: ≥ 75%
  inhibition at 1 µM: 50 to 75%

## Cc1nn(C2CCN(CC3CCN(c4cc5c(cc4F)C(=O)N(C4CCC(=O)NC4=O)C5=O)CC3)CC2)c2cc(C(=O)Nc3cc4[nH]c([C@H]5CCCN5C)cc4cn3)ccc12 (stereo partly drawn) [Example 69, 1-(1-((1-(2-(2,6-dioxopiperidin-3-yl)-6-fluoro-1,3-dioxoisoindolin-5-yl)piperidin-4-yl)methyl)piperidin-4-yl)-3-methyl-N-(2-((R)-1-methylpyrrolidin-2-yl)-1H-pyrrolo[3,2-c]pyridin-6-yl)-1H-indazole-6-carboxamide]
  inhibition at 0.01 µM: ≥ 75%
  inhibition at 0.1 µM: ≥ 75%
  inhibition at 1 µM: ≥ 75%

## Cc1nn(C2CCN(CC3CCN(c4ccc5c(c4)C(=O)N(C4CCC(=O)NC4=O)C5=O)CC3)CC2)c2cc(C(=O)Nc3cc4[nH]c([C@H]5CCCN5C)cc4cn3)ccc12 (stereo partly drawn) [Example 70, 1-(1-((1-(2-(2,6-dioxopiperidin-3-yl)-1,3-dioxoisoindolin-5-yl)piperidin-4-yl)methyl)piperidin-4-yl)-3-methyl-N-(2-((R)-1-methylpyrrolidin-2-yl)-1H-pyrrolo[3,2-c]pyridin-6-yl)-1H-indazole-6-carboxamide]
  inhibition at 0.01 µM: ≥ 75%
  inhibition at 0.1 µM: ≥ 75%
  inhibition at 1 µM: ≥ 75%

## Cc1nn(C2CCN(CC3CCN(c4cccc5c4C(=O)N(C4CCC(=O)NC4=O)C5=O)CC3)CC2)c2cc(C(=O)Nc3cc4[nH]c([C@H]5CCCN5C)cc4cn3)ccc12 (stereo partly drawn) [Example 71, 1-(1-((1-(2-(2,6-dioxopiperidin-3-yl)-1,3-dioxoisoindolin-4-yl)piperidin-4-yl)methyl)piperidin-4-yl)-3-methyl-N-(2-((R)-1-methylpyrrolidin-2-yl)-1H-pyrrolo[3,2-c]pyridin-6-yl)-1H-indazole-6-carboxamide]
  inhibition at 0.01 µM: 50 to 75%
  inhibition at 0.1 µM: ≥ 75%
  inhibition at 1 µM: ≥ 75%

Reference: patent publication EP4667466A1, “PROTAC DEGRADERS OF MLLT1 AND/OR MLLT3” (priority 2024, dated 2025)
